In publication PMC6278385, “Preclinical Pharmacokinetics of C118P, a Novel Prodrug of Microtubules Inhibitor and Its Metabolite C118 in Mice, Rats, and Dogs” (Molecules, 2018):

Assay: Tissue distribution in tumor bearing mice
Format: in vivo, nude mice (BALB/cA) implanted with NCI-H460 tumor
Conditions: n=4
Description: The nude mice (BALB/cA) implanted with NCI-H460 tumor were provided by Shanghai Institute of Materia Medica. A total of 36 mice were divided into 9 groups with four animals in each group. After fasting overnight with free access to water, the mice were treated with 75 mg/kg C118P by i.v. The blood samples were collected at 2, 10, 20, 40 min, 1, 2, 4, 8, 12 h after treatment and the mice were anaesthetized and decapitated to obtain the blood and tumor tissue. Blood, brain, muscle, ovary, and lung from mice in the PK study were collected at 10 min, 1, 4, and 12 h. Tissues were cleaned by absorbent filter paper to remove the blood. Bloods were centrifuged at 10,000× g for 5 min. Each tissue (0.2 g) was homogenized with 2 mL water. The plasma samples and the homogenates were then processed and determined by the method described above. The concentration was determined by the calibration curve and the actual concentration was corrected by multiplying by 10 according to the dilution times. […]
4. The distribution of CA4P and CA4 in tumor bearing mice.
The nude mice (BALB/cA) implanted with NCI-H460 tumor were provided by Shanghai institute of Materia Medica. A total of 36 mice were divided into 9 groups with 4 animals in each group.
After fasted overnight with free access to water, the mice were treated with 75 mg/kg CA4P by i.v.
The blood samples were collected at 2, 10, 20, 40 min, 1, 2, 4, 8, 12 h after treatment and the mice were anaesthetized and decapitated to obtain the blood and tumor tissue. All procedure are same as C118P in the main text. The concentration was determined by the calibration curve and the actual concentration was corrected by multiplying by 10 according to the dilution times.

[1] = 0.17 h after i.v. 75 mg/kg of CA4P
[2] = 1 h after i.v. 75 mg/kg of CA4P
[3] = 4 h after i.v. 75 mg/kg of CA4P
[4] = 12 h after i.v. 75 mg/kg of CA4P

Structure (SMILES)	concentration in Lung [1]	concentration in Plasma [1]	concentration in Tumor [1]	concentration in brain [1]	concentration in muscle [1]	concentration in ovary [1]	concentration in Lung [2]	concentration in Plasma [2]	concentration in Tumor [2]	concentration in brain [2]	concentration in muscle [2]	concentration in ovary [2]	concentration in Lung [3]	concentration in Plasma [3]	concentration in Tumor [3]	concentration in brain [3]	concentration in muscle [3]	concentration in Tumor [4]	concentration in muscle [4]	concentration in Plasma [4]
COc1ccc(/C=C\c2cc(OC)c(OC)c(OC)c2)cc1O [CA4, Combretastain A4, reference compound]	5849.0±580.7	12540.3±972.6	9835.7±1345.9	16165.3±1211.9	8526.1±3505.7	44183.5±13169.9	759.4±242.6	595.8±277.7	4803.9±770.6	2135.9±486.2	595.6±308.4	1288.3±711.2	106.8±12.1	21.1±4.5	3677.0±1079.9	97.6±21.3	142.0±33.9	735.1±426.2	51.9±36.8	
COc1ccc(/C=C\c2cc(OC)c(OC)c(OC)c2)cc1OP(=O)([O-])[O-].[Na+].[Na+] [CA4P, CA4 phosphate, reference compound]		15879.9±4473.5	142.8±49.2		345.2±68.9			324.9±105.2	26.5±1.4					15.0±6.8	34.5±1.9					12.6±3.3
